In the Deep4Chem optical property database:
Values belong to the compound of their own block, whether it stands above or below them.

Assay: solvent given as SMILES

Structure (SMILES): CN(C)c1ccc(/C=C/c2ccc(C#N)cc2)cc1
emission maximum (in C1CCOC1): 499 nm | emission maximum (in CC#N): 530 nm | emission maximum (in CCCC#N): 522 nm | emission maximum (in CCCCCC): 415 nm | emission maximum (in CCCCOCCCC): 453 nm | emission maximum (in CCO): 524 nm | emission maximum (in CCOCC): 475 nm

Structure (SMILES): CCOC(=O)CCCCCn1c2ccc(Cl)cc2c(=O)c2cc3c(cc21)c(=O)c1cc(Cl)ccc1n3CCCCCC(=O)OCC
emission maximum (in CO): 556 nm

Structure (SMILES): F[B-]1(F)n2c(-c3ccccc3)c3ccc4ccccc4c3c2N=C2c3c(ccc4ccccc34)C(c3ccccc3)=[N+]21
emission maximum (in ClCCl): 753 nm

Structure (SMILES): Cn1nc(-c2ccc(C(F)(F)F)cc2)cc1-c1ccccc1
emission maximum (in ClCCl): 341 nm

Structure (SMILES): CCC1=C(C)C(=O)n2c1cc1c(C)c(CCC(=O)O)c(C)n1c2=O
emission maximum (in CO): 535 nm | emission maximum (in CS(C)=O): 510 nm | emission maximum (in ClC(Cl)Cl): 490 nm | emission maximum (in c1ccccc1): 480 nm

Structure (SMILES): CCCCCCCCCCCCNc1cccc2[n+]1[B-](F)(F)n1c(c3cccc4cccc1c43)=N2
emission maximum (in C1CCOC1): 523 nm | emission maximum (in CC#N): 519 nm | emission maximum (in CCCCCC): 509 nm | emission maximum (in Cc1ccccc1): 529 nm | emission maximum (in ClCCl): 522 nm

Structure (SMILES): CC[N+]1(CC)CN2C(C)=CC(C)=C(C(=O)[O-])C2=N1
emission maximum (in CN(C)C=O): 453 nm | emission maximum (in O): 449 nm

Structure (SMILES): F[B-]1(F)N(c2ccccc2)c2cccc3ccc4ccc[n+]1c4c23
emission maximum (in ClCCl): 584 nm

Structure (SMILES): O=C1c2ccccc2NCN1Cc1ccccc1
emission maximum (in CC#N): 416 nm | emission maximum (in CCCCCCCCCCCCCCCC): 381 nm | emission maximum (in CO): 443 nm | emission maximum (in ClC(Cl)Cl): 398 nm | emission maximum (in c1ccccc1): 395 nm

Structure (SMILES): Cc1c2oc3c(C)c(N)cc(C(=O)NC4OC(=O)C(C(C)C)N(C)C(=O)CN(C)C(=O)C5CCCN5C(=O)C(C(C)C)NC4=O)c3nc-2c(C(=O)NC2OC(=O)C(C(C)C)N(C)C(=O)CN(C)C(=O)C3CCCN3C(=O)C(C(C)C)NC2=O)c(N)c1=O (centres undefined)
emission maximum (in C1CCOC1): 608.36 nm | emission maximum (in CC#N): 634.41 nm | emission maximum (in CC(=O)O): 638.86 nm | emission maximum (in CC(C)=O): 609.72 nm | emission maximum (in CCCCO): 669.51 nm | emission maximum (in CCCCOC(C)=O): 624.05 nm | emission maximum (in CCCO): 658.62 nm | emission maximum (in CCN(CC)CC): 597.77 nm | emission maximum (in CCO): 669 nm | emission maximum (in CCOC(C)=O): 598.75 nm | emission maximum (in CN(C)C=O): 640.78 nm | emission maximum (in CO): 673.84 nm | emission maximum (in CS(C)=O): 637.01 nm | emission maximum (in Cc1ccccc1): 613.07 nm | emission maximum (in ClC(Cl)Cl): 620.11 nm | emission maximum (in ClCCCl): 609.65 nm | emission maximum (in O): 674.17 nm | emission maximum (in O=[N+]([O-])c1ccccc1): 623.24 nm | emission maximum (in c1ccccc1): 621.25 nm | emission maximum (in c1ccncc1): 648.07 nm

Structure (SMILES): CCCCOc1ccc(-c2cc3c(o2)c(-c2ccc(OCCCC)cc2)c2n3[B-](F)(F)[N+]3=Cc4c(-c5ccc(OCCCC)cc5)c5oc(-c6ccc(OCCCC)cc6)cc5n4[B-](F)(F)[N+]3=C2)cc1
emission maximum (in C1CCOC1): 659 nm | emission maximum (in CN(C)C=O): 667 nm | emission maximum (in CS(C)=O): 672 nm | emission maximum (in Cc1ccccc1): 660 nm | emission maximum (in ClC(Cl)Cl): 660 nm | emission maximum (in ClCCl): 661 nm

Structure (SMILES): COc1ccc(C2CC(c3ccc(O)cc3)=NN2c2ccc(S(N)(=O)=O)cc2)cc1 (centres undefined)
emission maximum (in C1CCOC1): 417 nm | emission maximum (in C1COCCO1): 418 nm | emission maximum (in CC#N): 418 nm | emission maximum (in CC(C)O): 423 nm | emission maximum (in CCO): 429 nm | emission maximum (in CCOC(C)=O): 416 nm | emission maximum (in CN(C)C=O): 422 nm | emission maximum (in CO): 432 nm | emission maximum (in CS(C)=O): 425 nm | emission maximum (in O): 448 nm

Structure (SMILES): Cc1sc(-c2ccc(-c3nc(-c4ccccc4)c(-c4ccccc4)[nH]3)cc2)c(C)c1C1=C(c2c(C)n(C)c3ccccc23)C(F)(F)C(F)(F)C1(F)F
emission maximum (in C1CCOC1): 392 nm

Structure (SMILES): Oc1ccccc1-c1nc2c3cccnc3c3ncccc3c2n1-c1ccccc1
emission maximum (in Cc1ccccc1): 379 nm

Structure (SMILES): CN(C)c1ccc2nc(/C=C/c3cc4c5c(c3)CCCN5CCC4)c(=O)oc2c1
emission maximum (in C1CCCCC1): 543 nm | emission maximum (in C1COCCO1): 611 nm | emission maximum (in CC#N): 709 nm | emission maximum (in CC(C)=O): 679 nm | emission maximum (in CCCCCCC): 540 nm | emission maximum (in CCO): 705 nm | emission maximum (in CCOC(C)=O): 628 nm | emission maximum (in CN(C)C=O): 704 nm | emission maximum (in CS(C)=O): 715 nm | emission maximum (in Cc1ccccc1): 596 nm | emission maximum (in ClC(Cl)Cl): 671 nm | emission maximum (in ClCCl): 678 nm

Structure (SMILES): N#Cc1ccc(-c2cc(-c3ccc(N4CCCC4)cc3)nc(-c3ccccc3)n2)cc1
emission maximum (in ClC(Cl)Cl): 518 nm

Structure (SMILES): c1ccc2c(c1)c1ccccc1c1[nH]c(-c3ccc(-c4nc5c6ccccc6c6ccccc6c5[nH]4)cc3)nc21
emission maximum (in C1CCOC1): 456 nm | emission maximum (in CC#N): 462 nm | emission maximum (in CCO): 461 nm | emission maximum (in CS(C)=O): 430 nm | emission maximum (in ClCCl): 465 nm

Structure (SMILES): COc1ccc(/C=C/C2=C3CCc4ccccc4C3=[O+][B-](F)(F)O2)cc1
emission maximum (in ClCCl): 515 nm

Structure (SMILES): c1ccc(N(c2ccccc2)c2ccc(-c3ccc4c(c3)C3(c5cc(-c6ccc(N(c7ccccc7)c7ccccc7)cc6)ccc5S4)c4ccccc4-c4ccccc43)cc2)cc1
emission maximum (in CC(C)=O): 414.99 nm | emission maximum (in CCCCCC): 392.96 nm | emission maximum (in CN(C)C=O): 421.13 nm | emission maximum (in Cc1ccccc1): 398.74 nm | emission maximum (in ClCCl): 410 nm

Structure (SMILES): N#Cc1nc2c3ccc(-c4ccc(N(c5ccccc5)c5ccccc5)cc4)cc3c3cc(-c4ccc(N(c5ccccc5)c5ccccc5)cc4)ccc3c2nc1C#N
emission maximum (in C1COCCO1): 633.42 nm | emission maximum (in CCCCCC): 503.54 nm | emission maximum (in Cc1ccccc1): 588 nm | emission maximum (in ClC(Cl)Cl): 721.14 nm | emission maximum (in O=P(c1ccccc1)(c1ccccc1)c1cccc(-c2cc(-n3c4ccccc4c4ccccc43)cc(-n3c4ccccc4c4ccccc43)c2)n1): 628 nm

Structure (SMILES): CC1=CC(C)=[N+]2C1=C(c1ccc(-c3c4ccccc4c(-c4ccccc4)c4ccccc34)cc1)c1c(C)cc(C)n1[B-]2(F)F
emission maximum (in CC#N): 508 nm | emission maximum (in CCCCCC): 511 nm | emission maximum (in CCO): 510 nm | emission maximum (in CN(C)C=O): 510 nm | emission maximum (in Cc1ccccc1): 515 nm | emission maximum (in ClCCl): 512 nm

Structure (SMILES): N#CC1=C(N)n2c(=O)c3ccccc3c(=O)n2C1c1ccc([N+](=O)[O-])cc1 (centres undefined)
emission maximum (in CS(C)=O): 575 nm

Structure (SMILES): O=C1c2ccccc2C2=Cc3ccc4ccccc4[n+]3[B-](F)(F)N12
emission maximum (in CCO): 465 nm | emission maximum (in Cc1ccccc1): 474 nm | emission maximum (in ClCCl): 464 nm

Results, then the compound that gave them:

emission maximum (in CC#N): 496 nm
Structure (SMILES): Oc1ccc2ccccc2c1/C=N/c1ccccc1/N=C/c1c(O)ccc2ccccc12

emission maximum (in C1CCOC1): 620 nm
Structure (SMILES): C[Si](C)(C)c1ccc(-c2ccc(-c3ccc(-c4ccc(-c5ccc([Si](C)(C)C)cc5)s4)c4nsnc34)s2)cc1

emission maximum (in O): 552 nm
Structure (SMILES): COc1ccc(-c2cc(N3CCCCC3)c(C#N)c3c2-c2cccc4cccc-3c24)cc1

emission maximum (in C1CCOC1): 466.72 nm | emission maximum (in CC#N): 497.22 nm | emission maximum (in CCCCCC): 426 nm
Structure (SMILES): CC(C)(C)c1cc2cc(N(c3ccccc3)c3ccccc3)c3cc(C(C)(C)C)cc4cc(N(c5ccccc5)c5ccccc5)c(c1)c2c43

emission maximum (in C1CCOC1): 585 nm | emission maximum (in CC#N): 642 nm | emission maximum (in CCCCCC): 506 nm
Structure (SMILES): CC(O)CC1=N/C(=C\c2cccc(N(C)C)c2)C(=O)N1C (centres undefined)

emission maximum (in CC#N): 590 nm
Structure (SMILES): CCCn1c2cccc3oc4cccc5c4[c+](c32)c2c1cccc2n5CCC

emission maximum (in ClCCl): 407 nm
Structure (SMILES): COc1ccc(C(=O)NC(C)(C)C)c2c1ccc1c3ccccc3c3ccccc3c12

emission maximum (in ClC(Cl)Cl): 631 nm
Structure (SMILES): CCCN1c2ccccc2Sc2cc(/C=C\c3cc(=O)oc4cc(C)ccc34)ccc21

emission maximum (in CC#N): 501 nm
Structure (SMILES): Oc1ccccc1/C=N/c1cc2nc3ccccc3nc2cc1/N=C/c1ccccc1O

emission maximum (in C1CCCCC1): 390 nm
Structure (SMILES): CCCCCCCCOc1ccc(C2=C(c3ccc(OCCCCCCCC)cc3)C(C)(C)c3ccccc32)cc1

emission maximum (in C1CCCCC1): 400 nm | emission maximum (in C1COCCO1): 407 nm | emission maximum (in CC#N): 413 nm | emission maximum (in CCO): 416 nm | emission maximum (in OCC(F)(F)F): 426 nm
Structure (SMILES): Cc1cc(=O)oc2c1cc(Br)c1occ(C)c12

emission maximum (in ClCCl): 359 nm
Structure (SMILES): C[Si]1(C)c2ccccc2-c2ccccc21

emission maximum (in O): 662 nm
Structure (SMILES): Cc1ccc(N(C)C)cc1C1=C2C=CC(=[N+](C)C)C=C2[Si](C)(C)c2cc(N(C)C)ccc21

emission maximum (in C1CCCCC1): 340 nm | emission maximum (in ClCCl): 356 nm
Structure (SMILES): c1ccc2c(c1)Cc1cc3c(cc1-2)Cc1ccccc1-3

emission maximum (in ClC(Cl)Cl): 472 nm
Structure (SMILES): CCN(CC)c1ccc2cc(-c3ccc(-c4c5ccccc5c(-c5ccc(-c6cc7ccc(N(CC)CC)cc7oc6=O)cc5)c5ccccc45)cc3)c(=O)oc2c1

emission maximum (in CC#N): 688 nm | emission maximum (in CS(C)=O): 703 nm | emission maximum (in ClC(Cl)Cl): 691 nm
Structure (SMILES): C#CCn1c2ccccc2c2cc(/C=C/C3=[N+]4C(=C(c5ccc(I)cc5)c5c(C)cc(/C=C/c6ccc7c(c6)c6ccccc6n7CC#C)n5[B-]4(F)F)C(C)=C3)ccc21

emission maximum (in CCO): 644 nm | emission maximum (in O): 657 nm
Structure (SMILES): CC/[NH+]=c1\cc2oc3cc(NCCC(=O)NC(C(=O)OC)c4ccccc4)c4ccccc4c3nc-2cc1C (centres undefined)

emission maximum (in ClCCl): 413 nm
Structure (SMILES): CCCCc1cc2c3c(c1)-c1ccccc1B(c1c(C)cc(C)cc1C)N3B(c1c(C)cc(C)cc1C)c1ccccc1-2

emission maximum (in C1CCCCC1): 472 nm | emission maximum (in CC#N): 510 nm | emission maximum (in CCO): 549 nm
Structure (SMILES): COc1ccc2c(c1)-c1ccccc1C2=O

emission maximum (in C1CCCCC1): 728 nm
Structure (SMILES): COc1ccc2c(c1)c1cc(OC)ccc1n2-c1cc(Cl)c([C](c2c(Cl)cc(Cl)cc2Cl)c2c(Cl)cc(Cl)cc2Cl)c(Cl)c1

emission maximum (in ClCCl): 435 nm
Structure (SMILES): CC(C)c1cccc(C(C)C)c1N1C(=O)c2cccc3c(Oc4ccc(C(C)(C)c5ccccc5)cc4)ccc(c23)C1=O

emission maximum (in CCO): 582 nm | emission maximum (in ClCCl): 582 nm
Structure (SMILES): COc1ccc(-c2c3ccc(=[N+]4CCCCC4)cc-3oc3cc(N4CCCCC4)ccc23)cc1

emission maximum (in C1CCCCC1): 625 nm | emission maximum (in CCOC(C)=O): 626.5 nm | emission maximum (in CO): 625 nm
Structure (SMILES): Cc1ccccc1C1=C2C=c3c(oc4c3ccc3ccccc34)=[N+]2[B-](F)(F)n2c1cc1c3ccc4ccccc4c3oc12
